Assay results: ChEMBL document CHEMBL1287704, “Synthesis and biological evaluation of novel leonurine-SPRC conjugate as cardioprotective agents” (Bioorg Med Chem Lett, 2010)
Calls of active or inactive are those of the source. No cut-off for these calls is given here.

What was measured:
Format in all cases: functional, cell-based
[1] = Cardioprotective activity against hypoxia-induced neonatal rat ventricular myocytes damage assessed as increase in hydrogen sulfide level at 1 uM treated 12 hrs before hypoxia challenge measured after 5 hrs; settings: Ventricular myocyte
[2] = Cardioprotective activity against hypoxia-induced neonatal rat ventricular myocytes damage assessed as decrease of creatine kinase release at 1 uM treated 12 hrs before hypoxia challenge measured after 5 hrs; settings: Ventricular myocyte
[3] = Cardioprotective activity against hypoxia-induced neonatal rat ventricular myocytes damage assessed as decrease of LDH release at 1 uM treated 12 hrs before hypoxia challenge measured after 5 hrs; settings: Ventricular myocyte
Ventricular myocyte [4] = assay: Cardioprotective activity against hypoxia-induced neonatal rat ventricular myocytes damage assessed as increased cell viability at 1 uM treated 12 hrs before hypoxia challenge measured after 5 hrs by MTT assay
[5] = Cardioprotective activity against hypoxia-induced neonatal rat ventricular myocytes damage assessed as decrease of LDH release at 10 uM treated 12 hrs before hypoxia challenge measured after 5 hrs; settings: Ventricular myocyte
[6] = Cardioprotective activity against hypoxia-induced neonatal rat ventricular myocytes damage assessed as increase in hydrogen sulfide level at 10 uM treated 12 hrs before hypoxia challenge measured after 5 hrs; settings: Ventricular myocyte
[7] = Cardioprotective activity against hypoxia-induced neonatal rat ventricular myocytes damage assessed as decrease of creatine kinase release at 10 uM treated 12 hrs before hypoxia challenge measured after 5 hrs; settings: Ventricular myocyte
Ventricular myocyte [8] = assay: Cardioprotective activity against hypoxia-induced neonatal rat ventricular myocytes damage assessed as increased cell viability at 10 uM treated 12 hrs before hypoxia challenge measured after 5 hrs by MTT assay
[9] = Cardioprotective activity against hypoxia-induced neonatal rat ventricular myocytes damage assessed as decrease of creatine kinase release at 0.1 uM treated 12 hrs before hypoxia challenge measured after 5 hrs; settings: Ventricular myocyte
[10] = Cardioprotective activity against hypoxia-induced neonatal rat ventricular myocytes damage assessed as increase in hydrogen sulfide level at 0.1 uM treated 12 hrs before hypoxia challenge measured after 5 hrs; settings: Ventricular myocyte
[11] = Antiapoptotic activity against hypoxia-induced neonatal rat ventricular myocytes damage assessed as decrease in nuclear condensation at 0.1 uM using Hoechst 33258 staining by fluorescence microscopy; settings: Ventricular myocyte
[12] = Cardioprotective activity against hypoxia-induced neonatal rat ventricular myocytes damage assessed as increase in superoxide dismutase activity against 0.1 uM treated 12 hrs before hypoxia challenge measured after 5 hrs; settings: Ventricular myocyte
Ventricular myocyte [13] = assay: Cardioprotective activity against hypoxia-induced neonatal rat ventricular myocytes damage assessed as increased cell viability at 0.1 uM treated 12 hrs before hypoxia challenge measured after 5 hrs by MTT assay
[14] = Cardioprotective activity against hypoxia-induced neonatal rat ventricular myocytes damage assessed as decrease of LDH release at 0.1 uM treated 12 hrs before hypoxia challenge measured after 5 hrs; settings: Ventricular myocyte
[15] = Cardioprotective activity against hypoxia-induced neonatal rat ventricular myocytes damage assessed as decrease in malondialdehyde level at 0.1 uM treated 12 hrs before hypoxia challenge measured after 5 hrs; settings: Ventricular myocyte
[16] = Antiapoptotic activity against hypoxia-induced neonatal rat ventricular myocytes damage assessed as decrease in nuclei-shrunk at 0.1 uM using Hoechst 33258 staining by fluorescence microscopy; settings: Ventricular myocyte

Compound: COc1cc(C(=O)OCCCCNC(=N)N)cc(OC)c1O
- Activity [1]: inactive
- Activity [2]: Active
- Activity [3]: Active
- Activity (Ventricular myocyte [4]): Active

Compound: C#CCSC[C@H](N)C(=O)O
- Activity [5]: Active
- Activity [6]: 20.2 µmol/L
- Activity [7]: Active
- Activity (Ventricular myocyte [8]): Active

Compound: C#CCSC[C@H](N)C(=O)Oc1c(OC)cc(C(=O)OCCCCNC(=N)N)cc1OC
- Activity [5]: Active
- Activity [2]: Active
- Activity [9]: Active
- Activity [10]: 21.5 µmol/L
- Activity [3]: Active
- Activity [11]: Active
- Activity [12]: Active
- Activity (Ventricular myocyte [13]): Non-toxic
- Activity [7]: Active
- Activity (Ventricular myocyte [4]): Active
- Activity [14]: Active
- Activity [15]: Active
- Activity [16]: Active
- Activity (Ventricular myocyte [8]): Active
